In PubChem BioAssay (NCI):
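Where inhibition never reached the appropriate level, the endpoint shown equals the highest concentration tested. Otherwise, values were interpolated linearly from a five-concentration, 48-hour dose response in 96-well plates. GI50: concentration for 50% inhibition of growth. TGI: total growth inhibition.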

What was measured:
Assay in all cases: inhibition of tumour cell growth, NCI panel, 48 h; in the data active = GI50 below about 0.43 µM; inactive = the rest
[1] = test system: A498 renal
[2] = test system: SF-268 CNS
[3] = test system: IGROV1 ovarian
[4] = test system: HL-60(TB) leukemia
[5] = test system: NCI-H522 lung
[6] = test system: SF-539 CNS
[7] = test system: UO-31 renal
[8] = test system: NCI-H226 lung
[9] = test system: MOLT-4 leukemia
[10] = test system: BT-549 breast
[11] = test system: DU-145 prostate
[12] = test system: UACC-62 melanoma
[13] = test system: MALME-3M melanoma
[14] = test system: NCI-H23 lung
[15] = test system: HOP-92 NSCLC
[16] = test system: HCT-15 colon
[17] = test system: SF-295 CNS
[18] = test system: T-47D breast
[19] = test system: NCI-H460 lung
[20] = test system: COLO 205 colon
[21] = test system: A549 NSCLC
[22] = test system: MDA-MB-231 breast
[23] = test system: HOP-62 NSCLC
[24] = test system: UACC-257 melanoma
[25] = test system: SK-MEL-28 melanoma
[26] = test system: OVCAR-3 ovarian
[27] = test system: M14 melanoma
[28] = test system: SW-620 colon
[29] = test system: HCC-2998 colon
[30] = test system: MCF7 breast
[31] = test system: SK-MEL-5 melanoma
[32] = test system: MDA-MB-435
[33] = test system: HT29 colon
[34] = test system: HCT-116 colon
[35] = test system: TK-10 renal
[36] = test system: ACHN renal
[37] = test system: U251 CNS
[38] = test system: RXF 393 renal
[39] = test system: KM12 colon
[40] = test system: SK-MEL-2 melanoma
[41] = test system: HS 578T breast
[42] = test system: LOX IMVI melanoma
[43] = test system: OVCAR-5 ovarian
[44] = test system: SN12C renal
[45] = test system: SK-OV-3 ovarian
[46] = test system: RPMI-8226 leukemia
[47] = test system: 786-0 renal
[48] = test system: CCRF-CEM leukemia
[49] = test system: K-562 leukemia
[50] = test system: PC-3 prostate
[51] = test system: NCI/ADR-RES ovarian
[52] = test system: SNB-75 CNS
[53] = test system: OVCAR-4 ovarian
[54] = test system: OVCAR-8 ovarian
[55] = test system: SR leukemia
[56] = test system: SNB-19 CNS
[57] = test system: EKVX NSCLC
[58] = test system: CAKI-1 renal

C=C1C(=O)O[C@H]2[C@H]1CC/C(COC(=O)NCc1c[nH]c3ccccc13)=C\CC[C@@]1(C)O[C@@H]21
2.68 µM: TGI [7]
23.7 µM: TGI [23]
43.9 µM: TGI [41]
3.58 µM: TGI [20]
2.72 µM: TGI [38]
3.95 µM: TGI [12]
5.47 µM: TGI [44]
15.9 µM: TGI [24]
6.99 µM: TGI [54]
4.57 µM: TGI [26]
8.99 µM: TGI [25]
30.7 µM: TGI [39]
21.7 µM: TGI [52]
19 µM: TGI [29]
4.31 µM: TGI [15]
18.9 µM: TGI [50]
26.6 µM: TGI [45]
4.28 µM: TGI [28]
11.8 µM: TGI [32]
5.21 µM: TGI [13]
4.11 µM: TGI [18]
22.8 µM: TGI [56]
4.19 µM: TGI [16]
9.69 µM: TGI [33]
14.4 µM: TGI [43]
5.65 µM: TGI [35]
8.27 µM: TGI [48]
4.22 µM: TGI [4]
5.55 µM: TGI [8]
10.7 µM: TGI [11]
3.3 µM: TGI [34]
2.87 µM: TGI [42]
18.6 µM: TGI [53]
9.13 µM: TGI [9]
2.58 µM: TGI [5]
23.1 µM: TGI [19] | TGI [37] | TGI [51]
25 µM: TGI [31]
10.4 µM: TGI [6]
6.3 µM: TGI [10]
4.98 µM: TGI [22]
4.39 µM: TGI [30]
28.6 µM: TGI [21]
6.14 µM: TGI [46]
5 µM: TGI [27]
8.35 µM: TGI [55]
7.86 µM: TGI [36]
inactive: GI50 [1] 11.1 µM | GI50 [2] 10.4 µM | GI50 [3] 1.96 µM | GI50 [4] 1.54 µM | GI50 [5] 1.23 µM | GI50 [6] 2.82 µM | GI50 [7] 1.34 µM | GI50 [8] 2 µM | GI50 [9] 2.71 µM | GI50 [10] 1.98 µM | GI50 [11] 2.35 µM | GI50 [12] 1.72 µM | GI50 [13] 2.02 µM | GI50 [14] 8.37 µM | GI50 [15] 1.51 µM | GI50 [16] 1.67 µM | GI50 [17] 12.1 µM | GI50 [18] 1.57 µM | GI50 [19] 8.14 µM | GI50 [20] 1.81 µM | GI50 [21] 12.5 µM | GI50 [22] 1.91 µM | GI50 [23] 11.2 µM | GI50 [24] 4.25 µM | GI50 [25] 2.65 µM | GI50 [26] 1.71 µM | GI50 [27] 1.91 µM | GI50 [28] 1.7 µM | GI50 [29] 6.41 µM | GI50 [30] 1.5 µM | GI50 [31] 12.1 µM | GI50 [32] 2.57 µM | GI50 [33] 3.1 µM | GI50 [34] 1.53 µM | GI50 [35] 2.55 µM | GI50 [36] 1.97 µM | GI50 [37] 11.1 µM | GI50 [38] 1.24 µM | GI50 [39] 13.8 µM | GI50 [40] 11.1 µM | GI50 [41] 10.3 µM | GI50 [42] 1.4 µM | GI50 [43] 3.63 µM | GI50 [44] 1.77 µM | GI50 [45] 13.7 µM | GI50 [46] 1.79 µM | GI50 [47] 1.78 µM | GI50 [48] 1.48 µM | GI50 [49] 1.82 µM | GI50 [50] 5.16 µM | GI50 [51] 6.4 µM | GI50 [52] 9.86 µM | GI50 [53] 4.5 µM | GI50 [54] 2.2 µM | GI50 [55] 2.22 µM | GI50 [56] 10.6 µM | GI50 [57] 2.23 µM
24.5 µM: TGI [14] | TGI [40]
11.6 µM: TGI [3]
24.7 µM: TGI [17]
23.2 µM: TGI [1]
3.93 µM: TGI [47]
8.84 µM: TGI [57]
22.6 µM: TGI [2]
12.6 µM: TGI [49]

C[C@@]1(C(=O)O)CCC[C@]2(C)C1CC[C@@]13C[C@@](O)(CC[C@]12O)[C@@]1(CO1)C3 (stereo not given in full)
> 100 µM: TGI [1] | TGI [2] | TGI [3] | TGI [4] | TGI [5] | TGI [58] | TGI [6] | TGI [7] | TGI [8] | TGI [10] | TGI [11] | TGI [12] | TGI [13] | TGI [14] | TGI [16] | TGI [17] | TGI [18] | TGI [19] | TGI [20] | TGI [21] | TGI [22] | TGI [23] | TGI [24] | TGI [25] | TGI [26] | TGI [27] | TGI [28] | TGI [29] | TGI [30] | TGI [31] | TGI [32] | TGI [33] | TGI [34] | TGI [35] | TGI [36] | TGI [37] | TGI [38] | TGI [39] | TGI [40] | TGI [41] | TGI [42] | TGI [43] | TGI [44] | TGI [45] | TGI [46] | TGI [47] | TGI [48] | TGI [49] | TGI [50] | TGI [51] | TGI [52] | TGI [53] | TGI [54] | TGI [55] | TGI [56] | TGI [57]
inactive: GI50 [1] > 100 µM | GI50 [2] > 100 µM | GI50 [3] > 100 µM | GI50 [4] > 100 µM | GI50 [5] > 100 µM | GI50 [58] > 100 µM | GI50 [6] > 100 µM | GI50 [7] > 100 µM | GI50 [8] > 100 µM | GI50 [10] > 100 µM | GI50 [11] > 100 µM | GI50 [12] > 100 µM | GI50 [13] > 100 µM | GI50 [14] > 100 µM | GI50 [16] > 100 µM | GI50 [17] > 100 µM | GI50 [18] > 100 µM | GI50 [19] > 100 µM | GI50 [20] > 100 µM | GI50 [21] > 100 µM | GI50 [22] > 100 µM | GI50 [23] > 100 µM | GI50 [24] > 100 µM | GI50 [25] > 100 µM | GI50 [26] > 100 µM | GI50 [27] > 100 µM | GI50 [28] > 100 µM | GI50 [29] > 100 µM | GI50 [30] > 100 µM | GI50 [31] > 100 µM | GI50 [32] > 100 µM | GI50 [33] > 100 µM | GI50 [34] > 100 µM | GI50 [35] > 100 µM | GI50 [36] > 100 µM | GI50 [37] > 100 µM | GI50 [38] > 100 µM | GI50 [39] > 100 µM | GI50 [40] > 100 µM | GI50 [41] > 100 µM | GI50 [42] > 100 µM | GI50 [43] > 100 µM | GI50 [44] > 100 µM | GI50 [45] > 100 µM | GI50 [46] > 100 µM | GI50 [47] > 100 µM | GI50 [48] > 100 µM | GI50 [49] > 100 µM | GI50 [50] > 100 µM | GI50 [51] > 100 µM | GI50 [52] > 100 µM | GI50 [53] > 100 µM | GI50 [54] > 100 µM | GI50 [56] > 100 µM | GI50 [57] > 100 µM
